# Tests used:
# Assay in all cases: microbe, parasite or virus in culture
# Format in all cases: cell-based
# [1] = tested on: Pyrenophora teres; details: read-out: MIC (Minimum Inhibitory Concentration) PYRNTE
# [2] = tested on: Leptosphaeria nodorum; details: Parastagonospora nodorum, read-out: MIC (Minimum Inhibitory Concentration) LEPTNO
# [3] = tested on: Magnaporthe grisea f. sp. oryzae; details: Pyricularia oryzae, read-out: MIC (Minimum Inhibitory Concentration) PYRIOR, Table II; total inhibition of mycelial growth, V8 juice nutrient solution, 6-12 days at 18-25°C, visual inspection
# [4] = tested on: Phytophthora infestans; details: read-out: MIC (Minimum Inhibitory Concentration) PHYTIN
# [5] = tested on: Rhizoctonia solani; details: read-out: MIC (Minimum Inhibitory Concentration) RHIZSO
# [6] = tested on: Alternaria solani; details: read-out: MIC (Minimum Inhibitory Concentration) ALTESO
# [7] = tested on: Botrytis cinerea; details: read-out: MIC (Minimum Inhibitory Concentration) BOTRCI
Structure (SMILES),MIC [1] [µg/mL],MIC [2] [µg/mL],MIC [3] [µg/mL],MIC [4] [µg/mL],MIC [5] [µg/mL],MIC [6] [µg/mL],MIC [7] [µg/mL]
"CCCCCCc1c(-c2c(F)cccc2Cl)c(Cl)nc2ncnn12 [Example 1, 5-chloro-7-n-hexyl-6-(2-chloro-6-fluorophenyl)-1,2,4-triazolo[1,5a]pyrimidine]",3.13,12.5,1.56,100,–,–,–
"CC1CCC(c2c(-c3c(F)cccc3Cl)c(Cl)nc3ncnn23)CC1 (stereo not drawn) [Example 2, 5-chloro-7-(4-methylcyclohexyl)-6-(2-chloro-6-fluorophenyl)-1,2,4-triazolo[1,5a]pyrimidine]",1.56,–,< 0.05,> 100,> 100,0.1,0.2
"CN1C=C(c2c(-c3c(F)cc(F)cc3F)c(Cl)nc3ncnn23)CCC1 [Example 6, 5-chloro-7-(N-methyl-2,3-dehydropiperid-3-yl)-6-(2,4,6-trifluorophenyl)-1,2,4-triazolo[1,5a]pyrimidine]",–,25,0.78,> 100,> 100,3.13,25
"COc1nc2ncnn2c(C2CCCCC2)c1-c1c(F)cccc1F [Example 7, 5-methoxy-7-cyclohexyl-6-(2,6-difluorophenyl)-1,2,4-triazolo[1,5a]pyrimidine]",> 100,> 100,1.56,> 100,> 100,1.56,12.5
CCCCc1c(-c2ccccc2C)c(Cl)nc2ncnn12 [Example 19],6.25,12.5,0.78,50,> 100,1.56,12.5
CCCCc1c(-c2ccccc2Cl)c(Cl)nc2ncnn12 [Example 20],3.13,3.13,< 0.05,> 100,3.13,0.2,1.56
CCCCc1c(-c2ccccc2F)c(Cl)nc2ncnn12 [Example 21],0.78,3.13,< 0.05,100,3.13,0.1,1.56
CCCCc1c(-c2c(F)cccc2F)c(Cl)nc2ncnn12 [Example 22],6.25,1.56,0.1,> 100,1.56,0.1,1.56
CCCCc1c(-c2ccccc2)c(Cl)nc2ncnn12 [Example 23],> 100,> 100,25,50,> 100,6.25,> 100
CCc1c(-c2c(F)cccc2Cl)c(Cl)nc2ncnn12 [Example 24],> 100,3.13,< 0.05,> 100,6.25,12.5,6.25
CCCc1c(-c2c(F)cccc2Cl)c(Cl)nc2ncnn12 [Example 25],3.13,> 100,0.1,12.5,1.56,1.56,0.78
CC(C)Cc1c(-c2c(F)cccc2Cl)c(Cl)nc2ncnn12 [Example 26],3.13,0.39,< 0.05,> 100,0.78,0.78,0.2
CC(C)c1c(-c2c(F)cccc2Cl)c(Cl)nc2ncnn12 [Example 27],> 100,1.56,0.2,> 100,0.39,> 100,0.78
CCC(C)c1c(-c2c(F)cccc2Cl)c(Cl)nc2ncnn12 (stereo not drawn) [Example 28],6.25,> 100,1.56,> 100,0.78,6.25,3.13
Fc1cccc(Cl)c1-c1c(Cl)nc2ncnn2c1C1CCCC1 [Example 29],0.78,0.39,< 0.05,> 100,0.78,0.78,1.56
Fc1cccc(Cl)c1-c1c(Cl)nc2ncnn2c1C1CCCCC1 [Example 30],0.2,25,< 0.05,> 100,> 100,< 0.05,< 0.05
Fc1cccc(Cl)c1-c1c(Cl)nc2ncnn2c1CCC(F)(F)F [Example 32],12.5,> 100,0.2,50,6.25,3.13,0.78
Cc1cccc(C)c1-c1c(-c2c(F)cccc2Cl)c(Cl)nc2ncnn12 [Example 33],> 100,> 100,12.5,6.25,> 100,> 100,> 100
Cc1cccc(-c2c(-c3c(F)cccc3Cl)c(Cl)nc3ncnn23)c1 [Example 34],> 100,25,0.78,50,> 100,1.56,6.25

Structure (SMILES),MIC [1] [µg/mL],MIC [2] [µg/mL],MIC [3] [µg/mL],MIC [4] [µg/mL],MIC [5] [µg/mL],MIC [6] [µg/mL],MIC [7] [µg/mL]
Fc1cccc(Cl)c1-c1c(F)nc2ncnn2c1C1CCCCC1 [Example 37],> 100,> 100,–,> 100,> 100,–,–
COc1nc2ncnn2c(C2CCCCC2)c1-c1c(F)cc(F)cc1F [Example 49],1.56,> 100,0.39,> 100,> 100,0.2,–
COc1cc(F)c(-c2c(Cl)nc3ncnn3c2C2CCCCC2)c(F)c1 [Example 68],–,0.39,< 0.05,> 100,0.78,< 0.05,< 0.05
COc1cc(F)c(-c2c(OC)nc3ncnn3c2C2CCCCC2)c(F)c1 [Example 69],–,1.56,< 0.05,> 100,3.13,< 0.05,< 0.05
Fc1cc(F)c(-c2c(Cl)nc3ncnn3c2[C@H]2CC[C@@H](F)CC2)c(F)c1 [Example 71],–,0.78,< 0.05,> 100,6.25,< 0.05,0.2
COc1cc(F)c(-c2c(Cl)nc3ncnn3c2C2CC=CCC2)c(F)c1 (stereo not drawn) [Example 74],–,0.78,< 0.05,> 100,0.39,< 0.05,< 0.05
COc1nc2ncnn2c([C@H]2CC[C@@H](F)CC2)c1-c1c(F)cc(F)cc1F [Example 75],–,12.5,0.39,> 100,> 100,1.56,6.25
CC(=O)OC1CCC(c2c(-c3c(F)cc(F)cc3F)c(Cl)nc3ncnn23)CC1 (stereo not drawn) [Example 84],–,12.5,3.13,> 100,100,3.13,12.5
COc1cc(F)c(-c2c(Cl)nc3ncnn3c2C2CCC(OC(C)=O)CC2)c(F)c1 (stereo not drawn) [Example 85],–,6.25,0.78,25,> 100,0.78,1.56
COc1cc(F)c(-c2c(Cl)nc3ncnn3c2[C@H]2CC[C@@H](F)CC2)c(F)c1 [Example 87],–,0.39,< 0.05,> 100,> 100,< 0.05,< 0.05
COc1cc(F)c(-c2c(OC)nc3ncnn3c2[C@H]2CC[C@@H](F)CC2)c(F)c1 [Example 89],–,6.25,< 0.05,> 100,12.5,< 0.05,1.56
CCCc1c(-c2c(F)cc(OC)cc2F)c(Cl)nc2ncnn12 [Example 93],–,6.25,< 0.05,100,0.39,0.2,0.2
COc1cc(F)c(-c2c(Cl)nc3ncnn3c2CC(C)C)c(F)c1 [Example 94],–,3.13,< 0.05,> 100,0.2,0.1,0.2
COc1cc(F)c(-c2c(Cl)nc3ncnn3c2C2CCCO2)c(F)c1 (stereo not drawn) [Example 95],–,3.13,0.1,100,3.13,0.2,0.78
CCCCc1c(-c2c(F)cc(OC)cc2F)c(Cl)nc2ncnn12 [Example 96],–,3.13,< 0.05,> 100,0.78,< 0.05,0.1
COc1cc(F)c(-c2c(Cl)nc3ncnn3c2C2CCCC2)c(F)c1 [Example 97],–,6.25,0.1,> 100,0.39,< 0.05,0.2
CCCc1c(-c2c(F)cc(OC)cc2F)c(OC)nc2ncnn12 [Example 98],–,100,0.2,> 100,1.56,1.56,3.13
COc1cc(F)c(-c2c(OC)nc3ncnn3c2C2CCCC2)c(F)c1 [Example 99],–,> 100,0.39,> 100,1.56,0.39,0.78
COc1cc(F)c(-c2c(OC)nc3ncnn3c2CC(C)C)c(F)c1 [Example 100],–,> 100,< 0.05,> 100,1.56,0.39,0.78

# Reference: patent EP1054888B1 (priority 1998, dated 1999)
